Several values for one entry are separate records, joined by “and”; a condition that tells them apart may be missing. Equal entries are not always repeated.
Key:
[1] = test system: A549 cells overexpressing BCL-2 WT; assay: Cell viability assay, A549 stably overexpressing BCL-2 WT; assay type: cell-based; details: A549 BCL2-WT, single wells
Procedure: Cell viability was measured using CellTiter-Glo® 2.0 Reagent (Promega, G9242). […] After different inhibitors were added into serum-free medium and cultured for 4 h (RS4:11 for 6 h), FBS were supplemented to 10% and then incubated totally for 24 h or 48 h. Finally, the IC50 values were calculated based on measurements using a microplate reader (Thermo, Varioskan LUX). Statistical analysis was performed using software GraphPad Prism 7.0.
Lentivirus packaging vectors pMDLg/pRRE, pRSV-Rev, and pVSV-G were obtained from Prof. Han Jiahuai’s lab (Xiamen University). Lentiviruses were produced using 3rd-generation lentivirus packaging plasmids transiently transfected into HEK293T cells with the constructs of interest using 0.25 M CaCl2. Media was changed after 16 h, and supernatants containing infectious virus particles were harvested 24 h later. A second viral harvest was made following a further 24 h incubation with fresh media. Virus containing supernatant was filtered through a […], and stored at 4 °C or −80 °C until being used. Typically, A549 cells were seeded into 10 cm cell culture dishes at 4 ~ 8 × 10^5 cells/cm^2. An equivalent volume of virus containing culture medium was added along with polybrene (Sigma) to a final concentration of 10 µg/mL. Cells were incubated at 37 °C for 20 h, before they were washed and resuspended in fresh culture media. The expression level of BCL-2 was measured by qPCR and western blot methods.

[2] = target: BCL-2 (chimeric human BCL-2); assay: SPR binding assay, BCL-2; details: affinity fitting, mean ± SD of three independent experiments, 25 °C
Excerpt: The DNA fragments encoding human BCL-XL ([…], with […] removed), BCL-w (residues 6–152), MCL-1 (residues 152–308) and BFL-1 (residues 1–151) as previously reported[18] were cloned into a pET-22b vector (Invitrogen), respectively. A chimeric human BCL-2 (including residues 1–50 and 92–207) was constructed, by removing the internal long loop (residues 51–91) and replacing its residues 35–50 with residues 33–48 of BCL-XL to solubilize the protein[14], and then it was cloned into a pET28a-Sumo vector (Invitrogen). All BCL-2 mutants (G101V, F104L, Y103D, D111A) were generated by mutagenic PCR, according to the QuikChange (Stratagene) protocol.
SPR assays were performed using a Biacore T200 instrument in running buffer consisting 10 mM PBS, 50 μM EDTA and 0.05% Tween-20 at 25 °C. Biotinylated proteins were immobilized on a CAP sensor chip (Cytiva, 28920234). […] The binding affinities were quantified by the Biacore evaluation software using 1:1 binding model. The reproducibility of the assays was confirmed by performing replicate determinations.

In the case of `O=C(c1cc(-c2cc3c(cc2C(=O)N2Cc4ccccc4C[C@H]2CN2CCOCC2)OCO3)n2c1CCCC2)N(c1ccccc1)c1ccc(O)cc1` [S55746], the BCL2-WT inhibition rate ([1]; 3.125 uM) is reported as 2.61% and 4.22% and -4.33% and 4% and -2.32%, the raw luminescence reading ([1]; 3.125 uM) is reported as 861200 and 847000 and 922600 and 850300 and 904800 and 882000 and the BCL2-WT inhibition rate ([1]; 6.25 uM) is reported as 12% and 11% and 10% and 8% and 15%. The raw luminescence reading ([1]; 6.25 uM) was 774200 and 789000 and 799200 and 813400 and 753900 and 827800, the BCL2-WT inhibition rate ([1]; 12.5 uM) was 25% and 23% and 22% and 26% and the raw luminescence reading ([1]; 12.5 uM) was 665800 and 680900 and 679300 and 687300 and 653500 and 700500. For the same compound, the BCL2-WT inhibition rate ([1]; 25 uM) was 32% and 31%, the raw luminescence reading ([1]; 25 uM) was 602600 and 612300 and 599000 and 609600 and 600600 and 625900 and the BCL2-WT inhibition rate ([1]; 50 uM) was 45%. The raw luminescence reading ([1]; 50 uM) was 489600 and 486500 and 483800 and 490200 and 490400 and 500400, the BCL2-WT inhibition rate ([1]; 100 uM) was 51% and 50% and the raw luminescence reading ([1]; 100 uM) was 433600 and 432600 and 430000 and 431900 and 437900 and 439800. The BCL2-WT inhibition rate ([1]; 200 uM) was 51% and 53% and 52% and 50%, the raw luminescence reading ([1]; 200 uM) was 434700 and 435900 and 419200 and 420100 and 446100 and 441200 and the Kd [2] was 6 ± 2 nM.
